Measured values: patent US20060009432A1, “Use of neurosteroids to treat neuropathic pain” (priority 2004, published 2006)

Legend:
migraine = settings: phase 2 clinical trial for migraine; cited from earlier work
[1] = system: chronic constriction injury (CCI) of the sciatic nerve, rats; assay: Cold allodynia (acetone application) in chronic constriction injury model; format: in vivo, rat; settings: for Average time to withdrawal (s.e.m.): CCI rats
Procedure: Unilateral sciatic nerve injury was produced under deep anesthesia with i.p injection of sodium pentobarbital (Mebumal, 60 mg/kg), as described by Bennett and Xie (Pain, 33, 87-107(1988)). The common sciatic nerve was exposed and freed for about 10 mm at mid-thigh level. Four ligatures (Ethicon, 4.0 plain gut) were tied loosely around the nerve with about 1-mm spacing creating a chronic constriction injury (CCl), and the incision was closed.
Brisk foot withdrawal in response to acetone application was measured based on the method described by Choi et al. The acetone bubble was gently brought in touch with the plantar surface around the center, and the acetone quickly spread over the central part of the plantar surface of the foot. Applications were made five times (once every 5 min) to each paw. The score for each application was recorded as follows: foot withdrawal was scored as positive (1) and lack of withdrawal as negative (O). The total score (0 to 5) was taken as index for cold sensitivity of the foot […]. This approximates pain from a non-noxious stimulus, i.e. allodynia.
Cold allodynia response was measured 15, 30, 45, 60, 90 and 120 minutes after i.p. administration of ganaxolone (at 1 mg/kg, 3 mg/kg or 10 mg/kg) as well as prior to administration of the neurosteroid and prior to infliction of the neural injury. Table 1 provides the resulting measurement of cold allodynia response in groups of six rats per dosage level. The abbreviation “s.e.m.” means standard error mean.

SNL rats = assay: Thermal withdrawal (Hargreaves) in spinal nerve ligation model; format: in vivo, rat
Procedure: (§1) (A) L5/L6 spinal nerve ligation (SNL) was performed as described by Kim and Chung (Pain, 50,355-363(1992)). Animals (mice or rats) were anesthetized with halothane. An incision was made lateral to the lumbar spine. The right L5 and L6 spinal nerves were isolated and tightly ligated distal to the dorsal root ganglion. The incision was closed, and animals were allowed to recover for 10 days. Sham-operated animals were prepared in an identical fashion except that the spinal nerves were not ligated.
(§2) (B) The method of Hargreaves et al. (Pain, 32, 77-88 (1988)) was used to measure the thermal withdrawal latency in SNL rats. Animals were acclimated within Plexiglas enclosures on a clear glass plate maintained at 30° C. A radiant heat source (high-intensity projector lamp) was focused onto the plantar surface of the paw. When the paw was withdrawn, a motion detector halted the stimulus and a timer. A maximal cut-off of 40 sec for rats and 30 sec for mice was used to prevent tissue damage. Differences in responses between groups were tested by using the standard ANOVA statistical test followed by post hoc testing with Student's t test with Bonferroni's correction. Significance was defined as P<0.05.
Thermal withdrawal response was measured 15, 30, 45, 60, 90 and 120 minutes after i.p. administration of ganaxolone (at 1 mg/kg, 3 mg/kg, 6 mg/kg or 10 mg/kg). Table 3 provides the resulting measurement of thermal withdrawal in groups of five rats per dosage level.

[2] = system: rats receiving sham surgery; assay: Thermal withdrawal in rats receiving sham surgery; format: in vivo, rat
Procedure: as §1, §2
The thermal withdrawal response was measured using the same protocol in rats receiving sham surgery. Table 4 provides the resulting measurement of thermal withdrawal in groups of five rats per dose level.

## CC(=O)[C@H]1CC[C@H]2[C@@H]3CC[C@H]4C[C@](C)(O)CC[C@]4(C)[C@H]3CC[C@]12C [ganaxolone, 3α-hydroxy-3β-methyl-5α-pregnan-20-one]
migraine
  Benefit on time to pain relief: failed to show benefit
[1]; 1 mg/kg i.p., 15 min after administration
  Average time to withdrawal (s.e.m.): 7.40 (1.02)
[1]; 1 mg/kg i.p., 30 min after administration
  Average time to withdrawal (s.e.m.): 6.12 (1.72)
[1]; 1 mg/kg i.p., 45 min after administration
  Average time to withdrawal (s.e.m.): 5.07 (1.14)
[1]; 1 mg/kg i.p., 60 min after administration
  Average time to withdrawal (s.e.m.): 2.59 (0.47)
[1]; 1 mg/kg i.p., 90 min after administration
  Average time to withdrawal (s.e.m.): 3.66 (0.47)
[1]; 1 mg/kg i.p., 120 min after administration
  Average time to withdrawal (s.e.m.): 3.16 (0.26)
[1]; 3 mg/kg i.p., 15 min after administration
  Average time to withdrawal (s.e.m.): 6.77
[1]; 3 mg/kg i.p., 30 min after administration
  Average time to withdrawal (s.e.m.): 13.03
[1]; 3 mg/kg i.p., 45 min after administration
  Average time to withdrawal (s.e.m.): 11.12
[1]; 3 mg/kg i.p., 60 min after administration
  Average time to withdrawal (s.e.m.): 11.69
[1]; 3 mg/kg i.p., 90 min after administration
  Average time to withdrawal (s.e.m.): 10.26
[1]; 3 mg/kg i.p., 120 min after administration
  Average time to withdrawal (s.e.m.): 10.30
[1]; 10 mg/kg i.p., 15 min after administration
  Average time to withdrawal (s.e.m.): 13.86
[1]; 10 mg/kg i.p., 30 min after administration
  Average time to withdrawal (s.e.m.): 15.35
[1]; 10 mg/kg i.p., 45 min after administration
  Average time to withdrawal (s.e.m.): 13.34
[1]; 10 mg/kg i.p., 60 min after administration
  Average time to withdrawal (s.e.m.): 10.38
[1]; 10 mg/kg i.p., 90 min after administration
  Average time to withdrawal (s.e.m.): 8.59
[1]; 10 mg/kg i.p., 120 min after administration
  Average time to withdrawal (s.e.m.): 8.87
[1]; summary of Table 1, CCI rats
  Effect on average time to withdrawal: increases the average time to withdrawal
SNL rats; 1 mg/kg i.p., 15 min
  % Activity ± s.e.m. (thermal withdrawal): 24.59 ± 14.93%
SNL rats; 1 mg/kg i.p., 30 min
  % Activity ± s.e.m. (thermal withdrawal): 27.99 ± 17.71%
SNL rats; 1 mg/kg i.p., 45 min
  % Activity ± s.e.m. (thermal withdrawal): 3.98 ± 2.63%
SNL rats; 1 mg/kg i.p., 60 min
  % Activity ± s.e.m. (thermal withdrawal): 12.62 ± 8.69%
SNL rats; 1 mg/kg i.p., 90 min
  % Activity ± s.e.m. (thermal withdrawal): 17.40 ± 8.65%
SNL rats; 1 mg/kg i.p., 120 min
  % Activity ± s.e.m. (thermal withdrawal): 12.13 ± 9.25%
SNL rats; 3 mg/kg i.p., 15 min
  % Activity ± s.e.m. (thermal withdrawal): 37.15 ± 18.52%
SNL rats; 3 mg/kg i.p., 30 min
  % Activity ± s.e.m. (thermal withdrawal): 48.03 ± 22.45%
SNL rats; 3 mg/kg i.p., 45 min
  % Activity ± s.e.m. (thermal withdrawal): 19.84 ± 12.97%
SNL rats; 3 mg/kg i.p., 60 min
  % Activity ± s.e.m. (thermal withdrawal): 14.25 ± 10.87%
SNL rats; 3 mg/kg i.p., 90 min
  % Activity ± s.e.m. (thermal withdrawal): 4.18 ± 4.18%
SNL rats; 3 mg/kg i.p., 120 min
  % Activity ± s.e.m. (thermal withdrawal): 16.57 ± 11.76%
SNL rats; 6 mg/kg i.p., 15 min
  % Activity ± s.e.m. (thermal withdrawal): 79.03 ± 10.50%
SNL rats; 6 mg/kg i.p., 30 min
  % Activity ± s.e.m. (thermal withdrawal): 70.78 ± 11.53%
SNL rats; 6 mg/kg i.p., 45 min
  % Activity ± s.e.m. (thermal withdrawal): 43.72 ± 10.03%
SNL rats; 6 mg/kg i.p., 60 min
  % Activity ± s.e.m. (thermal withdrawal): 60.94 ± 10.27%
SNL rats; 6 mg/kg i.p., 90 min
  % Activity ± s.e.m. (thermal withdrawal): 42.83 ± 10.41%
SNL rats; 6 mg/kg i.p., 120 min
  % Activity ± s.e.m. (thermal withdrawal): 10.88 ± 6.34%
SNL rats; 10 mg/kg i.p., 15 min
  % Activity ± s.e.m. (thermal withdrawal): 70.07 ± 18.30%
SNL rats; 10 mg/kg i.p., 30 min
  % Activity ± s.e.m. (thermal withdrawal): 46.91 ± 14.25%
SNL rats; 10 mg/kg i.p., 45 min
  % Activity ± s.e.m. (thermal withdrawal): 47.36 ± 12.97%
SNL rats; 10 mg/kg i.p., 60 min
  % Activity ± s.e.m. (thermal withdrawal): 41.45 ± 10.90%
SNL rats; 10 mg/kg i.p., 90 min
  % Activity ± s.e.m. (thermal withdrawal): 33.58 ± 7.53%
SNL rats; 10 mg/kg i.p., 120 min
  % Activity ± s.e.m. (thermal withdrawal): 23.87 ± 4.35%
SNL rats; 10 mg/kg i.p., thermal withdrawal test
  Sedation: sedated four of the five rats for about one hour
[2]; 3 mg/kg, 15 min
  % Activity (thermal withdrawal): 11.87 ± 7.34%
[2]; 3 mg/kg, 30 min
  % Activity (thermal withdrawal): 3.25 ± 2.71%
[2]; 3 mg/kg, 45 min
  % Activity (thermal withdrawal): 3.62 ± 3.62%
[2]; 3 mg/kg, 60 min
  % Activity (thermal withdrawal): 1.98 ± 1.98%
[2]; 3 mg/kg, 90 min
  % Activity (thermal withdrawal): 2.22 ± 1.61%
[2]; 3 mg/kg, 120 min
  % Activity (thermal withdrawal): 1.39 ± 1.39%
[2]; 6 mg/kg, 15 min
  % Activity (thermal withdrawal): 0.00 ± 0.00%
[2]; 6 mg/kg, 30 min
  % Activity (thermal withdrawal): 0.00 ± 0.00%
[2]; 6 mg/kg, 45 min
  % Activity (thermal withdrawal): 3.98 ± 3.98%
[2]; 6 mg/kg, 60 min
  % Activity (thermal withdrawal): 2.95 ± 2.95%
[2]; 6 mg/kg, 90 min
  % Activity (thermal withdrawal): 1.73 ± 1.73%
[2]; 6 mg/kg, 120 min
  % Activity (thermal withdrawal): 0.41 ± 0.41%
[2]; 10 mg/kg, 15 min
  % Activity (thermal withdrawal): 24.54 ± 19.33%
[2]; 10 mg/kg, 30 min
  % Activity (thermal withdrawal): 22.60 ± 11.64%
[2]; 10 mg/kg, 45 min
  % Activity (thermal withdrawal): 8.03 ± 4.26%
[2]; 10 mg/kg, 60 min
  % Activity (thermal withdrawal): 0.65 ± 0.65%
[2]; 10 mg/kg, 90 min
  % Activity (thermal withdrawal): 0.28 ± 0.28%
[2]; 10 mg/kg, 120 min
  % Activity (thermal withdrawal): 0.02 ± 0.02%
